Reference: patent US20070155746A1, “NOVEL SUBSTITUTED PYRIDINYLOXY AND PYRIMIDINYLOXY AMIDES USEFUL AS INHIBITORS OF PROTEIN KINASES” (KALYPSYS, INC., priority 2005, published 2007)

What was measured:
Assay type in all cases: biochemical
PDGFRβ kinase = target: T1, PDGFRβ kinase (Homo sapiens, UniProt P09619); experiment: In vitro PDGFRβ kinase assay
T1 construct: purchased Invitrogen Inc. P3082
Outline: (§1)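 Human VEGFR2 (20 ng) or PDGFRβ (25 ng) was preincubated 10 min at about 22°C with compound, then reacted 2 h at 30°C with poly Glu:Tyr (4:1), ATP added at 60 μM. ADP formation was detected by ADP Quest coupled resorufin fluorescence (Ex 530/Em 580 nm). Efficacy is expressed as a percentage of Bay 43-9006 positive-control activity, with DMSO as negative control.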

[1] = target: T2, human B-Raf protein kinase (Homo sapiens, UniProt P15056); experiment: In vitro B-Raf/Mek1 composite kinase assay
T2 construct: GST (N); purchased Upstate Inc. 14-530 (B-Raf); 14-420 (Mek1)
T2 sequence (P15056 416-766): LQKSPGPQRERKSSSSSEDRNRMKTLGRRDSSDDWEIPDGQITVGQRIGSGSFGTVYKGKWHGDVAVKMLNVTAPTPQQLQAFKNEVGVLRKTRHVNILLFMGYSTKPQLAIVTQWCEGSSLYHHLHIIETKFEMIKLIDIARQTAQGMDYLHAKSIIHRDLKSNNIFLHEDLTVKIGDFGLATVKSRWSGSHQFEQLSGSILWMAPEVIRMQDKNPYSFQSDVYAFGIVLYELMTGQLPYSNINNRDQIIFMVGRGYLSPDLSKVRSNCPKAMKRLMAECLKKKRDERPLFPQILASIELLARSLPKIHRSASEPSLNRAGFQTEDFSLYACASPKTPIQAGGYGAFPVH
Outline: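 GST-tagged human B-Raf (Δ1-415), 1 ng, in MOPS pH 7.2 buffer with 10 mM MgCl2, preincubated 15 min with compound at room temperature; after 2 h, ATP depletion read by luminescence. Inhibition expressed as percentage of positive-control activity, DMSO as negative control.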

VEGFR2 kinase = target: T3, VEGFR2 kinase (Homo sapiens, UniProt P35968); experiment: In vitro VEGFR2 kinase assay
T3 construct: purchased Invitrogen Inc PV3660
T3 sequence (P35968 20-1356): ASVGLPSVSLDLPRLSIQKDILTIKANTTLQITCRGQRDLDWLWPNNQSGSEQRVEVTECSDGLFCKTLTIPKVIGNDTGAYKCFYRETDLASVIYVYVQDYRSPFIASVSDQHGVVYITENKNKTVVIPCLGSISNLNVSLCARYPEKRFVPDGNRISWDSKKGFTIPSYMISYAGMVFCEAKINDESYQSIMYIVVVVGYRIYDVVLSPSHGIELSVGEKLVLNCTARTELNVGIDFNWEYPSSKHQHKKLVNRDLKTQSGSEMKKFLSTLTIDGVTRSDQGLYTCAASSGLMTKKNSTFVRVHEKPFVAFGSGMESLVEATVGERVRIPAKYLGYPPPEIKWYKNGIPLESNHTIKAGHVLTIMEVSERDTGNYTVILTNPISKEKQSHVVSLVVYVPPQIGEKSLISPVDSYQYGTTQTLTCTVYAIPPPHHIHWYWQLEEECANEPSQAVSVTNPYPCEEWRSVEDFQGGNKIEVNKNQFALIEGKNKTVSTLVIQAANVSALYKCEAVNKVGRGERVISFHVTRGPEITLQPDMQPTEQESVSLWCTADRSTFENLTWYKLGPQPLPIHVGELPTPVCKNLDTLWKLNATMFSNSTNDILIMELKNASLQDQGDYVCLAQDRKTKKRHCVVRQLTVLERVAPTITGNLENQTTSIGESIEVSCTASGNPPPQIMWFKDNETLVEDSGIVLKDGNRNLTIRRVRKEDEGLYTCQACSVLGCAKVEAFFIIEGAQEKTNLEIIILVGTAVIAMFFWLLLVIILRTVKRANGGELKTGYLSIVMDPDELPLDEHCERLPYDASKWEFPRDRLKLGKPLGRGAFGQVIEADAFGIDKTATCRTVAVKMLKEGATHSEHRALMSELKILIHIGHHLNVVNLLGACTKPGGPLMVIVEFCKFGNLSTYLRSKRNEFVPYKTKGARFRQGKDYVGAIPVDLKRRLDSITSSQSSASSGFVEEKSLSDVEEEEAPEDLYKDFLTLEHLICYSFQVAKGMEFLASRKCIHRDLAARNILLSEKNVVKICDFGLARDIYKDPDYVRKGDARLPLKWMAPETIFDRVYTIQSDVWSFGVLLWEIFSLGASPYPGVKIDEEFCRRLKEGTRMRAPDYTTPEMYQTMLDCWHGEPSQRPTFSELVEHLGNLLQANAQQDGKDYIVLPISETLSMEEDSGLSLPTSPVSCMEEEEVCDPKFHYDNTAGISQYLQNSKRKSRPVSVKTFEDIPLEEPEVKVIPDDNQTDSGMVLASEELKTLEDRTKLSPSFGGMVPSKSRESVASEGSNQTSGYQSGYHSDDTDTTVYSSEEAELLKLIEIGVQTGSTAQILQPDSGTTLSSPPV
Outline: as §1

T1 sequence (P09619 33-1106): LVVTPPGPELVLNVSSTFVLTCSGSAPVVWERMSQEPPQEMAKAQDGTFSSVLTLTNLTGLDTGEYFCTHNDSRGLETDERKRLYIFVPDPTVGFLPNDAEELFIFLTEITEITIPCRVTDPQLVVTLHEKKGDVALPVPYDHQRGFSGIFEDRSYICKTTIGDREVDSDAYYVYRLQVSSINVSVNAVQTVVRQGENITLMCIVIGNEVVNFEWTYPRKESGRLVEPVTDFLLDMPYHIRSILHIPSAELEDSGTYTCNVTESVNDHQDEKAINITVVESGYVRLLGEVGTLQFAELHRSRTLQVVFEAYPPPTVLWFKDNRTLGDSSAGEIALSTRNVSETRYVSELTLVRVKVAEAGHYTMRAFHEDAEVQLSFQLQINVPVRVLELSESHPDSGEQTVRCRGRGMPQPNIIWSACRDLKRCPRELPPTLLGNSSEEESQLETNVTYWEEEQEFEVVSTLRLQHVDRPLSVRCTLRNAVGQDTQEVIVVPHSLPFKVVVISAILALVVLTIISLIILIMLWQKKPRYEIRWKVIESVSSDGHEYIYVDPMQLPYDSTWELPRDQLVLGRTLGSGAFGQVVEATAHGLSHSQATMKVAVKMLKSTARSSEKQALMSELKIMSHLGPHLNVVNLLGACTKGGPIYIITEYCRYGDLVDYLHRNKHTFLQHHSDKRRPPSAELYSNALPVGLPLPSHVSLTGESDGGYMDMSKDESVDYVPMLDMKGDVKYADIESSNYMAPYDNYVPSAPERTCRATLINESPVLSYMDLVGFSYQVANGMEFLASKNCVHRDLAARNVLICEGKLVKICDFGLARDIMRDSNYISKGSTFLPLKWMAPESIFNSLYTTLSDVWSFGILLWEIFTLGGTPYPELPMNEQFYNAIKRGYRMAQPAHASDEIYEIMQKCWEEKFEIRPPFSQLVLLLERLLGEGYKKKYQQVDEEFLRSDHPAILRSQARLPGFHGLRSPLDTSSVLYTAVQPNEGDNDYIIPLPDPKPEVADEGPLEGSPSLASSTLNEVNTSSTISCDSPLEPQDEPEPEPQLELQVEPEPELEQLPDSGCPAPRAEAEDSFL

IC50 (PDGFRβ kinase) | IC50 [1] | IC50 (VEGFR2 kinase) | SMILES
≤ 10 µM | ≤ 10 µM | ≤ 10 µM | CCOc1cccc(C(=O)Nc2cccc(Oc3ccnc(-c4cnn(C)c4)c3)c2)c1 [Example 72, 3-Ethoxy-N-(3-(2-(1-methyl-1H-pyrazol-4-yl)pyridin-4-yloxy)phenyl)benzamide]
> 10 µM | > 10 µM | > 10 µM | CCCOc1cccc(C(=O)Nc2cccc(Oc3ccnc(-c4cnn(C)c4)c3)c2)c1 [Example 73, N-(3-(2-(1-Methyl-1H-pyrazol-4-yl)pyridin-4-yloxy)phenyl)-3-propoxybenzamide]
> 10 µM | ≤ 10 µM | > 10 µM | CCCOc1ccc(C(=O)Nc2cccc(Oc3ccnc(-c4cnn(C)c4)c3)c2)cc1 [Example 74, N-(3-(2-(1-Methyl-1H-pyrazol-4-yl)pyridin-4-yloxy)phenyl)-4-propoxybenzamide]
> 10 µM | ≤ 10 µM | > 10 µM | CC(C)Oc1ccc(C(=O)Nc2cccc(Oc3ccnc(-c4cnn(C)c4)c3)c2)cc1 [Example 75, 4-Isopropoxy-N-(3-(2-(1-methyl-1H-pyrazol-4-yl)pyridin-4-yloxy)phenyl)benzamide]

Further lines, the compound ahead of its results:

SMILES | IC50 (PDGFRβ kinase) | IC50 [1] | IC50 (VEGFR2 kinase)
Cn1cc(-c2cc(Oc3cccc(NC(=O)c4ccc5occc5c4)c3)ccn2)cn1 [Example 66, N-(3-(2-(1-Methyl-1H-pyrazol-4-yl)pyridin-4-yloxy)phenyl)benzofuran-5-carboxamide] | > 10 µM | > 10 µM | > 10 µM
Cn1cc(-c2cc(Oc3cccc(NC(=O)c4ccc5c(c4)CCO5)c3)ccn2)cn1 [Example 67, N-(3-(2-(1-Methyl-1H-pyrazol-4-yl)pyridin-4-yloxy)phenyl)-2,3-dihydrobenzofuran-5-carboxamide] | > 10 µM | > 10 µM | > 10 µM
Cn1cc(-c2cc(Oc3cccc(NC(=O)c4cccc5c4OCC5)c3)ccn2)cn1 [Example 68, N-(3-(2-(1-Methyl-1H-pyrazol-4-yl)pyridin-4-yloxy)phenyl)-2,3-dihydrobenzofuran-7-carboxamide] | > 10 µM | ≤ 10 µM | > 10 µM
Cn1cc(-c2cc(Oc3cccc(NC(=O)c4cccc5[nH]ccc45)c3)ccn2)cn1 [Example 69, N-(3-(2-(1-Methyl-1H-pyrazol-4-yl)pyridin-4-yloxy)phenyl)-1H-indole-4-carboxamide] | > 10 µM | ≤ 10 µM | ≤ 10 µM
Cn1cc(-c2cc(Oc3cccc(NC(=O)c4ccc5[nH]ccc5c4)c3)ccn2)cn1 [Example 70, N-(3-(2-(1-Methyl-1H-pyrazol-4-yl)pyridin-4-yloxy)phenyl)-1H-indole-5-carboxamide] | > 10 µM | ≤ 10 µM | ≤ 10 µM
Cn1cc(-c2cc(Oc3cccc(NC(=O)c4cccc5cc[nH]c45)c3)ccn2)cn1 [Example 71, N-(3-(2-(1-Methyl-1H-pyrazol-4-yl)pyridin-4-yloxy)phenyl)-1H-indole-7-carboxamide] | > 10 µM | ≤ 10 µM | > 10 µM
CCCCOc1ccc(C(=O)Nc2cccc(Oc3ccnc(-c4cnn(C)c4)c3)c2)cc1 [Example 76, 4-Butoxy-N-(3-(2-(1-methyl-1H-pyrazol-4-yl)pyridin-4-yloxy)phenyl)benzamide] | > 10 µM | ≤ 10 µM | ≤ 10 µM
